{"source": "patent US20020045780A1", "about": "“Biologically active spermidine analogues, pharmaceutical compositions and methods of treatment” (priority 1997, published 2002)", "key": {"L1210 cells [1]": {"system": "L1210 cells", "experiment": "L1210 growth inhibition, IC50 determination", "format": "cell-based, murine", "conditions": "Mus musculus", "procedure": "Murine L1210 leukemia cells (ATCC CCL 219) were maintained in logarithmic growth in RPMI-1640 medium containing 10% fetal calf serum or a semi-synthetic equivalent, NuSerum, 2% HEPES-MOPS buffer and 1 mM aminoguanidine."}, "[2]": {"system": "polyamine transport apparatus", "experiment": "Competitive uptake determination: inhibition of [3H]spermidine transport into L1210 cells", "format": "cell-based, murine", "conditions": "analogue inhibition of spermidine transport", "summary_of_the_method": "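Analogues competed with [3H]spermidine for uptake into L1210 cells. Values are Ki, derived from Lineweaver–Burk analysis as competitive inhibition with respect to spermidine.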"}, "L1210 cells [3]": {"system": "L1210 cells", "experiment": "Polyamine pool analysis in L1210 cells", "format": "cell-based, murine", "conditions": "for activity at 100 µM / activity at 500 µM: Mus musculus, L1210, 48 h, % of untreated control; for Analogue: intracellular amount, 48 hours", "summary_of_the_method": "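Cells were exposed to each analogue for 48 h at two concentrations. Washed pellets were extracted with 0.6 N HClO4 (1 ml/10^7 cells), and polyamines were quantified by HPLC of dansyl derivatives.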"}, "[4]": {"system": "ornithine decarboxylase (ODC)", "experiment": "ODC activity in treated L1210 cells", "format": "cell-based, murine", "conditions": "L1210, 1 μM at 4 hours", "summary_of_the_method": "(§1)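 L1210 cells treated with triamines; ODC activity measured at 4 h and AdoMetDC at 6 h as ^14CO2 released from [^14C]-carboxyl-labeled L-ornithine (ODC) or S-adenosyl-L-methionine (AdoMetDC). Untreated cells served as controls and DEHSPM-treated cells as positive controls.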"}, "[5]": {"system": "S-adenosylmethionine decarboxylase (AdoMetDC)", "experiment": "AdoMetDC activity in treated L1210 cells", "format": "cell-based, murine", "conditions": "L1210, 1 μM at 6 hours", "summary_of_the_method": "as §1"}, "[6]": {"system": "spermidine/spermine acetyltransferase (SSAT)", "experiment": "SSAT activity in treated L1210 cells", "format": "cell-based, murine", "conditions": "L1210, 10 μM at 48 hours (triamine analogues)", "description": "Spermidine/spermine N^1-acetyltransferase activity was based on quantitation of [^14C]-N^1-acetylspermidine formed by acetylation of SPD with [^14C] acetyl coenzyme A according to the method of Libby et al [Biochem. Pharmacol., Vol. 38, supra]. Cells treated with DENSPM were positive controls."}, "L1210 cells [7]": {"system": "L1210 cells", "experiment": "Metabolic transformation of polyamine analogues by L1210 cells", "format": "in vitro ADME, murine", "conditions": "for Parent drug as % of total drug in the cell / Parent drug in L1210 cells: 48 hours, 100 μM analogue", "procedure": "The cells were washed twice with cold RPMI-1640, and the pellet was treated with 0.6 N HClO4 (1 ml/10^7 cells). Polyamine contents of the perchloric acid extracts were quantitated by HPLC of the DANSYL derivatives [Bergeron et al, J. Med. Chem., Vol. 37, supra]."}, "[8]": {"experiment": "Acute toxicity in mice (single i.p. dose)", "format": "in vivo", "conditions": "female, CD-1, mouse, in vivo, ip, mice, single dose i.p., scored two hours after dose, read-out: Acute LD50", "procedure": "In the current study, the acute toxicity of six analogues and the chronic toxicity of two triamines were measured (Table 7). The value of all polyamine LD50s are shown in both mg/kg and mmol/kg for comparison. […] The animals were scored two hours after administration of the drug. It is clear that the acute LD50s for triamine analogues are approximately twice the acute LD50s for the corresponding tetraamine analogues.\n(§2) Acute and chronic toxicities were assessed in 10-12 week old CD-1 female mice from Harlan Sprague-Dawley. For acute toxicities, the polyamine analogues were administered in a single i.p. injection to groups of five or six animals at each dose. The animals were scored two hours after administration of the dose. All survivors were further observed for 10 days to assess late onset of toxicity from the single acute dose. In the chronic toxicity regimen, mice were administered polyamine analogue in three i.p. doses per day (t.i.d.) for six days, for a total of eighteen doses per animal. Appetite, weight and overall appearance were monitored daily. […] At least three test groups of 5-6 animals each, representing three different dose levels, were evaluated for each analogue tested. These dose levels were chosen so that at least two groups presented with lethalities, one with a high fraction of lethalities (>0.50, but <1.00)."}, "mice": {"system": "mice", "format": "in vivo", "procedure": "In the chronic toxicity regimen, mice were administered the polyamine analogue in three doses per day (t.i.d.) for six days for a total of eighteen injections per animal and observed for 10 days after the final dose for lethalities. […] A similar difference is also observed in the chronic toxicity of DE(3,4).\nas §2"}, "L1210 cells [9]": {"system": "L1210 cells", "conditions": "cited from earlier work"}, "[10]": {"molecular_target": "polyamine transport apparatus", "conditions": "inhibition of spermidine transport, L1210; read-out: Ki, corresponding tetraamine (in parentheses); cited from earlier work"}, "L1210 cells [11]": {"system": "L1210 cells", "conditions": "48 hours, cited from earlier work; for Put, corresponding tetraamine (in parentheses) / Spd, corresponding tetraamine (in parentheses) / Spm, corresponding tetraamine (in parentheses): % of untreated control; for Analogue, corresponding tetraamine (in parentheses): intracellular amount"}, "[12]": {"system": "ornithine decarboxylase (ODC)", "conditions": "L1210, 1 μM at 4 hours; cited from earlier work"}, "[13]": {"system": "S-adenosylmethionine decarboxylase (AdoMetDC)", "conditions": "L1210, 1 μM at 6 hours; cited from earlier work"}, "[14]": {"system": "spermidine/spermine acetyltransferase (SSAT)", "conditions": "L1210, 2 μM at 48 hours (tetraamine analogues); cited from earlier work"}, "[15]": {"conditions": "L1210, 48 hour exposure, read-out: IC50 48 hour, corresponding tetraamine (in parentheses)"}, "[16]": {"conditions": "L1210, 96 hour exposure, read-out: IC50 96 hour, corresponding tetraamine (in parentheses)"}}, "note": "Counter-ions that a name gives are not always drawn. Like-named read-outs stand apart in the source and are kept apart here."}
{"smiles": "CCNCCCCNCCCNCC", "note": "[DESPD, N^1,N^8-Diethylspermidine Trihydrochloride]", "values": [{"measurement": "IC50", "setting": "L1210 cells [1]; L1210, 48 h, L1210, 48 hour exposure, read-out: IC50 48 hour", "result": "~100", "unit": "µM"}, {"measurement": "IC50", "setting": "L1210 cells [1]; L1210, 96 h, L1210, 96 hour exposure, read-out: IC50 96 hour", "result": "0.6 to 0.8", "unit": "µM"}, {"measurement": "Ki", "setting": "[2]", "result": 19.3, "unit": "µM"}, {"measurement": "activity at 100 µM", "setting": "L1210 cells [3]; 100 μM, read-out: Put", "result": 0, "unit": "%"}, {"measurement": "activity at 100 µM", "setting": "L1210 cells [3]; 100 μM, read-out: Spd", "result": 5, "unit": "%"}, {"measurement": "activity at 100 µM", "setting": "L1210 cells [3]; 100 μM, read-out: Spm", "result": 74, "unit": "%"}, {"measurement": "activity at 500 µM", "setting": "L1210 cells [3]; 500 μM, read-out: Put", "result": 0, "unit": "%"}, {"measurement": "activity at 500 µM", "setting": "L1210 cells [3]; 500 μM, read-out: Spd", "result": 0, "unit": "%"}, {"measurement": "activity at 500 µM", "setting": "L1210 cells [3]; 500 μM, read-out: Spm", "result": 55, "unit": "%"}, {"measurement": "Analogue", "setting": "L1210 cells [3]; 100 μM", "result": 4.61, "unit": "nmol/10^6 cells"}, {"measurement": "Analogue", "setting": "L1210 cells [3]; 500 μM", "result": 4.20, "unit": "nmol/10^6 cells"}, {"measurement": "ODC activity, percent of untreated control", "setting": "[4]", "result": "30% of untreated control"}, {"measurement": "AdoMetDC activity, percent of untreated control", "setting": "[5]", "result": "68% of untreated control"}, {"measurement": "SSAT activity, percent of untreated control", "setting": "[6]", "result": "1380% of untreated control"}, {"measurement": "Parent drug as % of total drug in the cell", "setting": "L1210 cells [7]", "result": 96.3, "unit": "%"}, {"measurement": "Parent drug in L1210 cells", "setting": "L1210 cells [7]", "result": 4041, "unit": "pmols/10^6"}, {"measurement": "LD50 at 2 h", "setting": "[8]; hydrochloride salts", "result": "> 650", "unit": "mg/kg"}, {"measurement": "LD50 at 2 h", "setting": "[8]", "result": "> 3220", "unit": "µmol/kg"}, {"measurement": "Animals died on day 6", "setting": "mice; female, CD-1, mouse, in vivo, 15 mg/kg, 3 days", "result": "4/5"}, {"measurement": "Animals died on day 7", "setting": "mice; female, CD-1, mouse, in vivo, 15 mg/kg, 7 day", "result": "5/5"}, {"measurement": "Chronic LD50 (triamines)", "setting": "mice; mice, i.p. t.i.d. × 6 days, hydrochloride salts", "result": 426, "unit": "mg/kg-day"}, {"measurement": "Chronic LD50 (triamines)", "setting": "mice; mouse, in vivo, ip", "result": 1.37, "unit": "mmol/kg/day"}, {"measurement": "Chronic toxicity in mice relative to the related tetraamine", "setting": "mice; ratio of chronic LD50 values, Table 7", "result": "about five times less toxic than DE(3,4,3)"}]}
{"smiles": "CNCCCCNCCCCNCCCCNC", "note": "[DMHSPM]", "values": [{"measurement": "N-dealkylation (result in words)", "setting": "L1210 cells [7]; L1210 cells, data not shown, concentration not given", "result": "no evidence of N-dealkylation"}, {"measurement": "IC50", "setting": "L1210 cells [9]; [15]", "result": "> 100", "unit": "µM"}, {"measurement": "IC50", "setting": "L1210 cells [9]; [16]", "result": 0.32, "unit": "µM"}, {"measurement": "Ki", "setting": "[10]", "result": 0.97, "unit": "µM"}, {"measurement": "Put, corresponding tetraamine (in parentheses)", "setting": "L1210 cells [11]; 100 μM", "result": "(0) %"}, {"measurement": "Spd, corresponding tetraamine (in parentheses)", "setting": "L1210 cells [11]; 100 μM", "result": "(0) %"}, {"measurement": "Spm, corresponding tetraamine (in parentheses)", "setting": "L1210 cells [11]; 100 μM", "result": "(30) %"}, {"measurement": "Put, corresponding tetraamine (in parentheses)", "setting": "L1210 cells [11]; 500 μM", "result": "(0) %"}, {"measurement": "Spd, corresponding tetraamine (in parentheses)", "setting": "L1210 cells [11]; 500 μM", "result": "(0) %"}, {"measurement": "Spm, corresponding tetraamine (in parentheses)", "setting": "L1210 cells [11]; 500 μM", "result": "(27) %"}, {"measurement": "Analogue, corresponding tetraamine (in parentheses)", "setting": "L1210 cells [11]; 100 μM", "result": "(1.49) nmol/10^6 cells"}, {"measurement": "Analogue, corresponding tetraamine (in parentheses)", "setting": "L1210 cells [11]; 500 μM", "result": "(1.03) nmol/10^6 cells"}, {"measurement": "ODC activity, corresponding tetraamine (in parentheses)", "setting": "[12]", "result": "4% of untreated control"}, {"measurement": "AdoMetDC activity, corresponding tetraamine (in parentheses)", "setting": "[13]", "result": "45% of untreated control"}, {"measurement": "SSAT activity, corresponding tetraamine (in parentheses)", "setting": "[14]", "result": "140% of untreated control"}]}
{"smiles": "CCCNCCCNCCCNCCCNCCC", "note": "[DPNSPM, N^1,N^11-Dipropylnorspermine Tetrahydrochloride]", "values": [{"measurement": "Parent drug as % of total drug in the cell", "setting": "L1210 cells [7]", "result": 78.2, "unit": "%"}, {"measurement": "Parent drug in L1210 cells", "setting": "L1210 cells [7]", "result": 893, "unit": "pmols/10^6"}, {"measurement": "IC50", "setting": "L1210 cells [9]; [15]", "result": "> 100", "unit": "µM"}, {"measurement": "IC50", "setting": "L1210 cells [9]; [16]", "result": 18, "unit": "µM"}, {"measurement": "Ki", "setting": "[10]", "result": 11, "unit": "µM"}, {"measurement": "Put, corresponding tetraamine (in parentheses)", "setting": "L1210 cells [11]; 100 μM", "result": "(61) %"}, {"measurement": "Spd, corresponding tetraamine (in parentheses)", "setting": "L1210 cells [11]; 100 μM", "result": "(35) %"}, {"measurement": "Spm, corresponding tetraamine (in parentheses)", "setting": "L1210 cells [11]; 100 μM", "result": "(77) %"}, {"measurement": "Put, corresponding tetraamine (in parentheses)", "setting": "L1210 cells [11]; 500 μM", "result": "(0) %"}, {"measurement": "Spd, corresponding tetraamine (in parentheses)", "setting": "L1210 cells [11]; 500 μM", "result": "(19) %"}, {"measurement": "Spm, corresponding tetraamine (in parentheses)", "setting": "L1210 cells [11]; 500 μM", "result": "(56) %"}, {"measurement": "Analogue, corresponding tetraamine (in parentheses)", "setting": "L1210 cells [11]; 100 μM", "result": "(0.89) nmol/10^6 cells"}, {"measurement": "Analogue, corresponding tetraamine (in parentheses)", "setting": "L1210 cells [11]; 500 μM", "result": "(1.28) nmol/10^6 cells"}, {"measurement": "ODC activity, corresponding tetraamine (in parentheses)", "setting": "[12]", "result": "79% of untreated control"}, {"measurement": "AdoMetDC activity, corresponding tetraamine (in parentheses)", "setting": "[13]", "result": "70% of untreated control"}, {"measurement": "SSAT activity, corresponding tetraamine (in parentheses)", "setting": "[14]", "result": "460% of untreated control"}]}
